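A five-concentration, 48-hour dose response in 96-well plates underlies each endpoint, interpolated linearly between surrounding concentrations. GI50: concentration for 50% inhibition of growth. TGI: total growth inhibition.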
Experiments:
Test in all cases: growth of human tumour cells (NCI), 48 h
NCI/ADR-RES ovarian = tested on: NCI/ADR-RES ovarian
SK-MEL-5 melanoma = tested on: SK-MEL-5 melanoma
HOP-62 NSCLC = tested on: HOP-62 NSCLC
ACHN renal = tested on: ACHN renal
SNB-19 CNS = tested on: SNB-19 CNS
OVCAR-5 ovarian = tested on: OVCAR-5 ovarian
HL-60(TB) leukemia = tested on: HL-60(TB) leukemia
KM12 colon = tested on: KM12 colon
RXF 393 renal = tested on: RXF 393 renal
SF-295 CNS = tested on: SF-295 CNS

| Structure (SMILES) | TGI (NCI/ADR-RES ovarian) [µM] | TGI (SK-MEL-5 melanoma) [µM] | TGI (HOP-62 NSCLC) [µM] | TGI (ACHN renal) [µM] | TGI (SNB-19 CNS) [µM] | TGI (OVCAR-5 ovarian) [µM] | TGI (HL-60(TB) leukemia) [µM] | TGI (KM12 colon) [µM] | TGI (RXF 393 renal) [µM] | TGI (SF-295 CNS) [µM] | GI50 (NCI/ADR-RES ovarian) [nM] | GI50 (SK-MEL-5 melanoma) [nM] | GI50 (HOP-62 NSCLC) [µM] | GI50 (ACHN renal) [µM] | GI50 (SNB-19 CNS) [µM] | GI50 (SF-295 CNS) [nM] | GI50 (OVCAR-5 ovarian) [µM] | GI50 (KM12 colon) [µM] | GI50 (RXF 393 renal) [nM] |
| --- | --- | --- | --- | --- | --- | --- | --- | --- | --- | --- | --- | --- | --- | --- | --- | --- | --- | --- | --- |
| O=C(Cn1c(C(=O)/C=C/c2cccs2)nc2ccccc21)c1ccc(Cl)cc1 | 38.4 | 43.3 | > 100 | > 100 | > 100 | > 100 | 61.3 | 46.6 | > 100 | – | – | – | – | – | – | – | – | – | – |
| CC1(C)[C@H]2CC[C@]1(C)[C@H](OC(=O)NNC(=O)O[C@@H]1C[C@@H]3CC[C@@]1(C)C3(C)C)C2 | – | 25.5 | 29.5 | 36.7 | 39.1 | 34.1 | 62.7 | 37.3 | 24.7 | 28.8 | – | – | – | – | – | – | – | – | – |
| O=C1c2cc3c(cc2CC12Cc1ccc4c(c1C2=O)CCCC4)CCCC3 (stereo unspecified) | > 100 | > 100 | > 100 | > 100 | > 100 | > 100 | > 100 | – | > 100 | > 100 | – | – | – | – | – | – | – | – | – |
| Cc1cc(N2CCCC2)nc(N(CCNc2ccnc3cc(Cl)ccc23)Cc2ccco2)n1 | 79.6 | 3.28 | 30 | > 100 | 70.2 | > 100 | – | > 100 | 6.74 | 16.1 | 2990 | 1780 | 5.64 | 6.53 | 5.67 | 2070 | 4.93 | 3.86 | 2140 |
| c1cn(C23C4C5C6C4C2C6C53)cn1 (stereo unspecified) | > 100 | > 100 | > 100 | > 100 | > 100 | > 100 | > 100 | > 100 | – | > 100 | – | – | – | – | – | – | – | – | – |
| Cc1nc2c(sc(=S)n2-c2ccccc2)c(=O)[nH]1 | – | > 100 | > 100 | > 100 | > 100 | > 100 | > 100 | > 100 | – | > 100 | – | – | – | – | – | – | – | – | – |
| COc1ccc(C2N(NC(=O)c3ccncc3)C(=O)CS2(=O)=O)cc1F (stereo unspecified) | – | > 100 | > 100 | > 100 | > 100 | > 100 | > 100 | > 100 | > 100 | > 100 | – | – | – | – | – | – | – | – | – |
| COc1ccccc1Cc1nc(-c2ccccc2)nn(C2OC(COC(C)=O)C(OC(C)=O)C(OC(C)=O)C2OC(C)=O)c1=S (stereo unspecified) | > 100 | 26.1 | 38.3 | – | > 52.7 | > 100 | > 100 | > 100 | 31.9 | > 69.4 | – | – | – | – | – | – | – | – | – |
| COc1ccc(-n2c(=O)n(C)c(=O)n2-c2ccc(OC)cc2)cc1 | > 100 | > 100 | > 100 | > 100 | > 100 | > 100 | > 100 | > 100 | – | > 100 | – | – | – | – | – | – | – | – | – |
| COC1OC2COC1(OC)C1OC(C)(C)OC21 (stereo unspecified) | > 100 | > 100 | > 100 | > 100 | > 100 | > 100 | – | > 100 | > 100 | > 100 | – | – | – | – | – | – | – | – | – |
| COc1cc2c(cc1OC)C(Cl)C(c1ccc(Cl)c(Cl)c1)=C2Cl (stereo unspecified) | – | 19.8 | – | 21.8 | 41.8 | – | 9.47 | – | – | 22 | – | – | – | – | – | – | – | – | – |
| NCCCN(CCCN)CCN(CCN(CCCN)CCCN)CCN(CCCN)CCCN | > 100 | > 100 | > 100 | > 100 | > 100 | > 100 | > 100 | – | – | > 100 | – | – | – | – | – | – | – | – | – |
| CCOC(=O)c1cc2c(C(=O)c3ccc([N+](=O)[O-])cc3)c(C(C)=O)ccc2[nH]1 | – | > 100 | 18.4 | > 100 | 87.9 | > 100 | > 100 | > 100 | 80.5 | > 100 | – | – | – | – | – | – | – | – | – |
| CC1(c2ccc[n+](Cc3ccccc3)c2)OCCO1 | – | > 100 | > 100 | > 100 | > 100 | > 100 | > 100 | > 100 | > 100 | > 100 | – | – | – | – | – | – | – | – | – |
| CCOC(=O)C(NC(=O)CC)(Nc1cc(C)on1)C(F)(F)F (stereo unspecified) | > 100 | > 100 | – | > 100 | > 100 | > 100 | > 100 | – | > 100 | – | – | – | – | – | – | – | – | – | – |
| Cc1cn(Cc2cnnn2CC2OC(n3cc(C)c(=O)[nH]c3=O)CC2O)c(=O)[nH]c1=O (stereo unspecified) | > 100 | > 100 | > 100 | > 100 | > 100 | > 100 | – | > 100 | > 100 | > 100 | – | – | – | – | – | – | – | – | – |
| O=c1ccn(CC2(CO)CC(Cc3ccccc3)C2)c(=O)[nH]1 (stereo unspecified) | > 100 | > 100 | > 100 | > 100 | – | > 100 | > 100 | > 100 | > 100 | > 100 | – | – | – | – | – | – | – | – | – |
| COc1cc2cc[n+]3c(C)c4cc(OC)c(OC)cc4c([O-])c3c2cc1OC | – | > 100 | > 100 | > 100 | > 100 | > 100 | 48.8 | > 100 | 89.9 | > 100 | – | – | – | – | – | – | – | – | – |
| CCOC(=O)c1cc2c3c(c(C(C)=O)c(O)c2[nH]1)N(CC(C)CC)CC3 (stereo unspecified) | > 100 | – | – | > 100 | > 100 | – | > 100 | > 100 | > 100 | > 100 | – | – | – | – | – | – | – | – | – |
| CN(C)c1nc2oc(-c3ccccc3)c(-c3ccccc3)c2c2nnnn12 | > 100 | > 100 | – | > 100 | > 100 | > 100 | 96.2 | > 100 | > 100 | > 100 | – | – | – | – | – | – | – | – | – |
| NNC(=O)Cn1c2ccc(Br)cc2c2nc3ccccc3nc21 | > 100 | > 100 | 89.8 | > 100 | > 100 | > 100 | – | > 100 | > 100 | > 100 | – | – | – | – | – | – | – | – | – |
| CCN(CC)c1ccc2cc(C(=O)Nc3cccc4ccccc34)c(=N)oc2c1 | > 100 | > 100 | – | > 100 | > 100 | > 100 | > 100 | > 100 | > 100 | > 100 | – | – | – | – | – | – | – | – | – |
| C/C(Nc1ccc(F)cc1)=C1/CCOC1=O | > 100 | > 100 | > 100 | > 100 | > 100 | – | > 100 | > 100 | > 100 | > 100 | – | – | – | – | – | – | – | – | – |

Source: PubChem BioAssay (NCI)
